target: T1, human MGL from HeLa cells (Homo sapiens, UniProt Q99685); assay: In vitro MGL activity assay: [glycerol-1,3-3H]-oleyl glycerol cleavage by MGL from HeLa cells; type: biochemical; settings: 300 nM [Glycerol-1,3-3H]-oleyl glycerol, one hour
T1 construct: combining endogenously expressed MGL from HeLa cells with test compounds; endogenous in cells; host or cells: HeLa cells / cell homogenates
T1 sequence (Q99685 1-303): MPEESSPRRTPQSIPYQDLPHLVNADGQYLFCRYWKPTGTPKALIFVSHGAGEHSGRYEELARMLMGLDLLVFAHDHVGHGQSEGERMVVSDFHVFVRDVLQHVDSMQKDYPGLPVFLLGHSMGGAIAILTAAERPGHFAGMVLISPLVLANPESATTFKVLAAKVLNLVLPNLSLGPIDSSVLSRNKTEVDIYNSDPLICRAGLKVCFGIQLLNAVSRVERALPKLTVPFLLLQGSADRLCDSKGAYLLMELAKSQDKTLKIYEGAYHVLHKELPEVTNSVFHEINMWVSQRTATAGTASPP
Text: MGL is the predominant hydrolase in HeLa cells/cell homogenates.

Q: For C[C@H]1c2nn(C)c(-c3cc(F)c(F)c(F)c3)c2CCN1C(=O)c1cnc2ncccc2c1 [Example 490, [(7S)-2,7-Dimethyl-3-(3,4,5-trifluorophenyl)-5,7-dihydro-4H-pyrazolo[3,4-c]pyridin-6-yl]-(1,8-naphthyridin-3-yl)methanone], which IC50 is on record?
A: 226 nM

Q: C[C@H]1c2nn(C)c(-c3cc(F)c(F)c(F)c3)c2CCN1C(=O)c1cnn(C)c1C1(F)CC1 [Example 335, [(7S)-2,7-Dimethyl-3-(3,4,5-trifluorophenyl)-5,7-dihydro-4H-pyrazolo[3,4-c]pyridin-6-yl]-[5-(1-fluorocyclopropyl)-1-methyl-pyrazol-4-yl]methanone] was tested. Which IC50 did it give?
A: 32.1 nM

Q: Which IC50 does the source give for COc1ccn2ncc(C(=O)N3CCc4c(nn(C)c4-c4cc(F)c(F)c(F)c4)[C@@H]3C)c2c1 [Example 389, [(7S)-2,7-Dimethyl-3-(3,4,5-trifluorophenyl)-5,7-dihydro-4H-pyrazolo[3,4-c]pyridin-6-yl]-(5-methoxypyrazolo[1,5-a]pyridin-3-yl)methanone] here?
A: 9.94 nM

Q: For C[C@H]1c2nn(C)c(-c3cccc4ccoc34)c2CCN1C(=O)c1ccc2ncccc2c1 [Example 534, [(7S)-3-(Benzofuran-7-yl)-2,7-dimethyl-5,7-dihydro-4H-pyrazolo[3,4-c]pyridin-6-yl]-(6-quinolyl)methanone], which IC50 is on record?
A: 25.1 nM

Q: How did the IC50 turn out when C[C@H]1c2nn(C)c(-c3cc(F)c(F)c(F)c3)c2CCN1C(=O)c1ccnc2c1OCCO2 [Example 569, 2,3-Dihydro-[1,4]dioxino[2,3-b]pyridin-8-yl-[(7S)-2,7-dimethyl-3-(3,4,5-trifluorophenyl)-5,7-dihydro-4H-pyrazolo[3,4-c]pyridin-6-yl]methanone] was run?
A: 28.7 nM

same assay, conditions: 300 nM [Glycerol-1,3-3H]-oleyl glycerol, one hour incubation

Q: Cn1nc2c(c1-c1ccccc1)CCN(C(=O)c1cccc3ncccc13)C2 [Example 89, (2-Methyl-3-phenyl-2,4,5,7-tetrahydro-6H-pyrazolo[3,4-c]pyridin-6-yl)(quinolin-5-yl)methanone] was tested. Which IC50 did it give?
A: 56 nM

Q: Cn1nc2c(c1-c1ccc(C(F)(F)F)s1)CCN(C(=O)c1ccc3ncccc3c1)C2 [Example 103, (2-Methyl-3-(5-(trifluoromethyl)thiophen-2-yl)-2,4,5,7-tetrahydro-6H-pyrazolo[3,4-c]pyridin-6-yl)(quinolin-6-yl)methanone] was tested. Which IC50 did it give?
A: 264 nM

Q: Which IC50 does the source give for C[C@H]1c2nn(C)c(-c3cc(F)c(F)c(F)c3)c2CCN1C(=O)c1c(F)cccc1-n1nccn1 [Example 288, [(7S)-2,7-Dimethyl-3-(3,4,5-trifluorophenyl)-5,7-dihydro-4H-pyrazolo[3,4-c]pyridin-6-yl]-[2-fluoro-6-(triazol-2-yl)phenyl]methanone] here?
A: 59.8 nM

Q: For COc1cccc(OC)c1C(=O)N1CCc2c(nn(C)c2-c2ccccc2)C1 [Example 10, (2,6-Dimethoxyphenyl)(2-methyl-3-phenyl-2,4,5,7-tetrahydro-6H-pyrazolo[3,4-c]pyridin-6-yl)methanone], which IC50 is on record?
A: > 10000 nM

Q: How did the IC50 turn out when C[C@H]1c2nn(C)c(-c3cc(F)c(F)c(F)c3)c2CCN1C(=O)c1ccc(-c2cn[nH]c2)cc1 [Example 268, [(7S)-2,7-Dimethyl-3-(3,4,5-trifluorophenyl)-5,7-dihydro-4H-pyrazolo[3,4-c]pyridin-6-yl]-[4-(1H-pyrazol-4-yl)phenyl]methanone] was run?
A: 24.2 nM

Q: With C[C@H]1c2nn(C)c(-c3cc(F)c(F)c(F)c3)c2CCN1C(=O)c1cnc2cccnc2c1 [Example 245, (S)-(2,7-Dimethyl-3-(3,4,5-trifluorophenyl)-2,4,5,7-tetrahydro-6H-pyrazolo[3,4-c]pyridin-6-yl)(1,5-naphthyridin-3-yl)methanone] as the compound, how does the IC50 read?
A: 122 nM

Q: For Cn1nc2c(c1-c1ccccc1)CCN(C(=O)c1cc3[nH]ccc3s1)C2 [Example 31, (2-Methyl-3-phenyl-2,4,5,7-tetrahydro-6H-pyrazolo[3,4-c]pyridin-6-yl)(4H-thieno[3,2-b]pyrrol-2-yl)methanone], which IC50 is on record?
A: 1230 nM

Reference: patent publication US11820766B2, “Monoacylglycerol lipase modulators” (Janssen Pharmaceutica NV, priority 2018, dated 2023)
